Results on eight compounds are retold here after PubChem BioAssay (NCI).

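Cultured in 96-well plates, cells were exposed to test compound for 48 hours across five concentrations. TGI: total growth inhibition.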 Bounds are passed on as bounds.

Some test systems named below: UACC-257 melanoma; CAKI-1 renal; NCI-H226 lung; EKVX NSCLC; OVCAR-3 ovarian; NCI-H522 lung; HCC-2998 colon; MCF7 breast; IGROV1 ovarian; SNB-75 CNS.
What all share (experiment): DTP human tumour cell line panel, 48 h

With `O=C1C=CC(=O)c2ncccc21`, the TGI was determined as 11.2 µM with UACC-257 melanoma; 4.02 µM with CAKI-1 renal; 32.4 µM in the test on NCI-H226 lung; 9.86 µM with EKVX NSCLC; 4.13 µM in the test with OVCAR-3 ovarian; 3.44 µM in the test on NCI-H522 lung. For the same compound, the TGI with HCC-2998 colon was 21 µM; in the test on MCF7 breast it was 25.8 µM; in the test with IGROV1 ovarian, 17.6 µM; in the test on SNB-75 CNS it was 17.2 µM.

For `COC(=O)C(C)Sc1nc2cc(Cl)ccc2s1` (stereo not given), the TGI with UACC-257 melanoma, in the test with CAKI-1 renal, in the test on NCI-H226 lung, with EKVX NSCLC, in the test on OVCAR-3 ovarian and with NCI-H522 lung was greater than 100 µM each time. In addition, the TGI with HCC-2998 colon, in the test on MCF7 breast, in the test with IGROV1 ovarian and in the test on SNB-75 CNS was greater than 100 µM in each case.

Regarding `Cc1cc(S(=O)(=O)Nc2nnc3cc(C(F)(F)F)cc(C)n23)c(S)cc1Cl`, the TGI was greater than 100 µM in the test with UACC-257 melanoma; greater than 100 µM with CAKI-1 renal; greater than 96.5 µM in the test with NCI-H226 lung; greater than 100 µM in the test with EKVX NSCLC; greater than 100 µM with OVCAR-3 ovarian; greater than 100 µM in the test on NCI-H522 lung. The TGI was greater than 70.1 µM in the test on HCC-2998 colon, greater than 31.6 µM with MCF7 breast, greater than 100 µM in the test on IGROV1 ovarian and greater than 100 µM in the test on SNB-75 CNS.

Consider `C/C=C/[C@H]1O[C@@](OC)([C@@H](C)[C@H](O)[C@H](C)[C@H]2OC(=O)/C(OC)=C/C(C)=C/[C@@H](C)[C@@H](O)[C@@H](C)[C@@H](O)[C@H](C)C/C(C)=C/C=C/[C@@H]2OC)CC(OC2CC(O)C(OC(N)=O)C(C)O2)[C@@H]1C` (stereo not given in full), for which the TGI in the test on UACC-257 melanoma was less than 0.0143 µM; with CAKI-1 renal, 11.7 µM; in the test on NCI-H226 lung, 14.1 µM; with EKVX NSCLC, 12.8 µM; with OVCAR-3 ovarian, 10.1 µM; in the test with NCI-H522 lung, 1.42 µM. Further, the TGI in the test on HCC-2998 colon was determined as 13.3 µM; with MCF7 breast it was 16 µM; with IGROV1 ovarian, 15.1 µM; with SNB-75 CNS it was 19.5 µM.

With `CC(C)(C)N1Cc2ccccc2/C(=C/Sc2ccccc2)C1=O`, the TGI with UACC-257 melanoma amounted to 31.2 µM; with CAKI-1 renal, 30.7 µM; in the test on NCI-H226 lung, 25.9 µM; in the test with EKVX NSCLC, 34.2 µM; with OVCAR-3 ovarian, 25.1 µM; in the test with NCI-H522 lung, 11.4 µM. The TGI in the test with HCC-2998 colon was 34.4 µM; in the test on MCF7 breast it was 24.3 µM; with IGROV1 ovarian it was 24 µM; in the test on SNB-75 CNS, 31.9 µM.

For `COc1ccc(OC)c2cc(Cc3ccc(N(C)C)cc3)c(=O)c(Cc3ccc(N(C)C)cc3)cc12`, the TGI was greater than 100 µM in the test with UACC-257 melanoma; greater than 100 µM in the test with CAKI-1 renal; greater than 100 µM in the test on NCI-H226 lung; greater than 100 µM in the test with EKVX NSCLC; greater than 100 µM with OVCAR-3 ovarian; 89.9 µM in the test on NCI-H522 lung. The TGI in the test with HCC-2998 colon, in the test on MCF7 breast, with IGROV1 ovarian and in the test on SNB-75 CNS was greater than 100 µM throughout.

Regarding `COC1/C=C/C(C)C(C(C)C(OC)C(C)CCC(=O)C(C)C(CCC(=O)O)OC)OC(=O)/C=C/C=C(\C)CC(OC)CC2=CC(=O)O[C@@H](C(C)C(OC)CC(OC)/C=C/C(C)C(OC)C1)[C@H]2O` (stereo not given in full), the TGI was greater than 3.9 µM in the test with UACC-257 melanoma; 0.934 µM in the test on CAKI-1 renal; 2.13 µM in the test on NCI-H226 lung; greater than 5 µM in the test with EKVX NSCLC; 1.72 µM with OVCAR-3 ovarian; greater than 5 µM in the test with NCI-H522 lung. The TGI in the test with HCC-2998 colon is greater than 5 µM; in the test on MCF7 breast, greater than 5 µM; in the test with IGROV1 ovarian, 0.948 µM; with SNB-75 CNS, 2.22 µM.

For the compound `O=C1OS2(OCc3cccc4cccc2c34)c2ccccc21` (stereo not given), the TGI in the test with UACC-257 melanoma, in the test with CAKI-1 renal, in the test on NCI-H226 lung, in the test with EKVX NSCLC, with OVCAR-3 ovarian and in the test with NCI-H522 lung was greater than 100 µM each time. Further, the TGI in the test with HCC-2998 colon, with MCF7 breast, in the test on IGROV1 ovarian and in the test on SNB-75 CNS was greater than 100 µM each time.

A word on the TGI: it is the concentration giving total growth inhibition. Low readings indicate more potent growth arrest, high ones less potent growth arrest.
